From patent US20050009837A1, “Modulators of lipid metabolism and methods of use” (City of Hope, priority 2003, published 2005)

Tests used:
LXRα [1] = target: LXRα (Homo sapiens, UniProt Q13133); test: LXR activity, fatty acids
[2] = mice fed the agonist; cited from earlier work
NIH3T3-L1 adipocytes = test: Triglyceride content (Nile Red) of NIH3T3-L1 cells differentiated to adipocytes; format: cell-based; conditions: T0901317 200 nM or Clotrimazole 7.5 μm, 7 days
Experimental: NIH 3T3-L1 cells were maintained in growth media consisting of Dulbecco's modified Eagle's medium (DMEM) supplemented with 10% calf bovine serum (CBS), 50 U/ml penicillin G and 50 μg/ml streptomycin sulfate. To induce NIH 3T3-L1 differentiation into adipocytes, confluent cells were transferred from their growth media to DMEM containing 10% fetal bovine serum (FBS), 5 μg/ml insulin, 0.5 mM 3-isobutyl-1-methylxanthine (IBMX) and 1 μM dexamethasone for 7 days. During the differentiation period, cells also optionally received 200 nM T0901317, 7.5 μM Clotrimazole or both.
NIH3T3-L1 cells were allowed to differentiate for 7 days in the presence of a well-established differentiation cocktail containing dexamethazole (1 μm), IBMX (0.5 mM) and insulin (5 μg/ml) in the absence or presence of T0901317 (200 nM) or Clotrimazole (7.5 μm). The cells then were fixed and stained with Nile Red, which stains triglycerides (TG) green, and DAPI to visualize nuclei (in blue). TG content of the cell reflected increased or decreased lipogenesis.

SREBP-1c expression = test: Real-time PCR of SREBP-1c expression in HepG2 cells; format: cell-based, human; conditions: 100 nM, 24 hours, versus untreated
Experimental: Real time PCR was then performed on cDNA derived from RNA isolated form the treated HepG2 cells as follows. Real time quantitative PCR assays were performed using an Applied Biosystems 7700 sequence detector (Applied Biosystems). Each reaction mixture contained 50 ng cDNA, 1.25 pmol each forward and reverse primer, and […] 2× SYBR Green PCR master mix (Applied Biosystems) in a final volume of 25 μl. The PCR conditions were 50° C. for 2 min, 95° C. for 10 min, and 40 cycles of 95° C. for 15 sec and 60° C. for 1 min. Samples were run in duplicate for each primer pair. Expression of glyceraldehyde-3-phosphate dehydrogenase (GAPDH) was analyzed in parallel as an internal control. Each sample was normalized to GAPDH and is represented in the Figure showing the results as arbitrary units with the expression levels in untreated cells assigned a value of one. The primer sequences are as follows: human SREBP-1c forward [NT] ID NO:1); human SREBP-1c reverse [NT] ID NO:2); human GAPDH forward [NT] ID NO:3) and human GAPDH reverse [NT] ID NO:4).

LXRβ = target: T1, LXRβ (Homo sapiens, UniProt P55055); test: Transient transfection assay Gal-LXRβ + RXR LBD, UASGx4 TK Luc reporter, CV-1 cells; format: cell-based; conditions: 10 μM; for repression of LXRβ activity: approximately 40 hours, lipid-stripped serum; for less effective than Clotrimazole in repressing LXRβ: relative to Clotrimazole
T1 construct: expressed in transfected cells; host or cells: CV-1 cells
T1 sequence (P55055 222-460 limits assumed): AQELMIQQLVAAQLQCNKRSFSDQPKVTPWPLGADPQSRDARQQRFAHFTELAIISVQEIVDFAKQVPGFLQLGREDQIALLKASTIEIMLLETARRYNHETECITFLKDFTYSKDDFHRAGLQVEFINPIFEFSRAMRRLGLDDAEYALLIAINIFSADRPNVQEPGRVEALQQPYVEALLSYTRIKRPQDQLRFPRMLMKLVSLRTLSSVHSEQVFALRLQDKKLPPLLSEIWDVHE
T1 sequence (P19793 227-458 partner limits assumed): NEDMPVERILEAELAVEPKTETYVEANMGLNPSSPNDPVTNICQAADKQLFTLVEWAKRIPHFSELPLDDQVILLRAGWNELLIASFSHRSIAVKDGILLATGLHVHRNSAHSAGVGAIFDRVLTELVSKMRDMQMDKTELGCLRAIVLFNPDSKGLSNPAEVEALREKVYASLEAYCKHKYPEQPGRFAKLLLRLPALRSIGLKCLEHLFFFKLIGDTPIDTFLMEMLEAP
Experimental: (§1) Synthetic compounds were screened in an effort to find more specific LXR inhibitors. CV-1 cells were maintained and transfected using known methods. Forman et al., Cell 81: 687-693, 1995. CV-1 cells were transiently transfected with Gal-hLXRα, the RXR LBD, the UASGx4 TK Luc reporter and CMX-β-gal as an internal control, either in standard or in lipid-stripped serum. After transfection, cells were treated for approximately 40 hours with phenol red-free DMEM-FBS containing the indicated compounds at the following concentrations: T0901317 (100 nM), Clotrimazole (10 μM), S883417(10 μM) and S100250 (10 μM), unless otherwise specified. After exposure to ligand, the cells were harvested and assayed for luciferase and β-galactosidase activity. The luciferase activity was normalized to the internal β-galactosidase control (reporter activity).
(§2) The ability of these compounds to repress LXRα and LXRβ was compared by transfecting CV-1 cells with either the RXR LBD alone or the RXR LBD together with either Gal-LXRα or Gal-LXRβ.
(§3) Transfections were performed as described above, with increasing concentrations of Clotrimazole.

human LXRα = target: T2, human LXRα (Homo sapiens, UniProt Q13133); test: Full-length hLXRα/hRXRα LXREx3 TK-Luc reporter assay in transfected CV-1 cells; format: cell-based; conditions: 20 μM, 40 hours
T2 construct: expressed in transfected cells; host or cells: CV-1 cells
T2 sequence (Q13133 1-447): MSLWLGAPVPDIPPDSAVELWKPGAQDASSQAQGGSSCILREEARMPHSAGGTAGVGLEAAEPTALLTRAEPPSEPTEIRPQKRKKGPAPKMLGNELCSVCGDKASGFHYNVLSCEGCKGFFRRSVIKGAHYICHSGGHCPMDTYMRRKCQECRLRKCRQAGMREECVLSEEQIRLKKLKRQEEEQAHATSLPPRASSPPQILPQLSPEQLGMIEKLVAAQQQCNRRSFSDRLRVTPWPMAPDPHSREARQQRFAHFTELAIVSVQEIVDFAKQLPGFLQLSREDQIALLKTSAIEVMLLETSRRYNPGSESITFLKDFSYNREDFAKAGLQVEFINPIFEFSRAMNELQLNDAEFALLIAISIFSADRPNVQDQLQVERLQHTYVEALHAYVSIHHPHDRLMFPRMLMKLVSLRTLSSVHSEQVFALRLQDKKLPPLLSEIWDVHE
T2 sequence (P19793 1-462 partner): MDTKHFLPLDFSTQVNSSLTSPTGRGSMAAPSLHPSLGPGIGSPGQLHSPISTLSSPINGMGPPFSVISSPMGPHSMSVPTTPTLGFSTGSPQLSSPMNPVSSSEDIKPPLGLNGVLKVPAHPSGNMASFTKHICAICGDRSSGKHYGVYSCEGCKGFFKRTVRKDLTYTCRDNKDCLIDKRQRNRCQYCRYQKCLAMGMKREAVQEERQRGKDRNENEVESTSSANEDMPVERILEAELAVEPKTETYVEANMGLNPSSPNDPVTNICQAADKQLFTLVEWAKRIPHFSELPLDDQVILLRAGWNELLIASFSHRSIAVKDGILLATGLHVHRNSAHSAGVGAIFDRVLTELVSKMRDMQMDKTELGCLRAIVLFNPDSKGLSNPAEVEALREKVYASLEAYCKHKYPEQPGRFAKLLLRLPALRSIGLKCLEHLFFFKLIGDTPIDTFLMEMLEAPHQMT
Experimental: (§4) CV-1 cells were grown in DMEM supplemented with 10% resin-charcoal stripped fetal bovine serum, 50 U/ml penicillin G and 50 μg/ml streptomycin sulfate at 37° C. in 5% CO2. Cells were plated to 50-80% confluence one day prior to transfection using phenol red-free DMEM-FBS. The cells were transfected by lipofection using N-[1-(2,3-dioleoyloxy)propyl]-N,N,N-ammonium methyl sulfate according to manufacturer's instructions (Boehringer Mannheim).
(§5) Genes encoding the following full-length proteins, which are suitable for use in the studies described herein, were cloned into pCMX: human RXRα (Gene Bank accession X52773) and human LXRα (GenBank accession U22662). The cells were transfected with CMX-βgal and luciferase constructs. The CMX-βGal construct contained the ligand binding domain of human RXR (hRXRα) and the ligand binding domain of human LXRα (hLXRα) as indicated in FIG. 1. The luciferase reporter construct (LXREx3 TK-Luc) contained the herpes virus thymidine kinase promoter (−105/+51) linked to three copies of the response element LXRE. After transfection, the cells were treated with 20 μM of a synthetic azole test compound or vehicle alone for 40 hours in phenol red-free DMEM-FBS.

LXRα [3] = target: T3, LXRα (Homo sapiens, UniProt Q13133); test: Transient transfection assay Gal-hLXRα + RXR LBD, UASGx4 TK Luc reporter, CV-1 cells; format: cell-based; conditions: 10 μM; for repression of LXRα activity: approximately 40 hours, lipid-stripped serum; for less effective than Clotrimazole in repressing LXRα: relative to Clotrimazole
T3 construct: expressed in transfected cells; host or cells: CV-1 cells
T3 sequence (Q13133 209-447 limits assumed): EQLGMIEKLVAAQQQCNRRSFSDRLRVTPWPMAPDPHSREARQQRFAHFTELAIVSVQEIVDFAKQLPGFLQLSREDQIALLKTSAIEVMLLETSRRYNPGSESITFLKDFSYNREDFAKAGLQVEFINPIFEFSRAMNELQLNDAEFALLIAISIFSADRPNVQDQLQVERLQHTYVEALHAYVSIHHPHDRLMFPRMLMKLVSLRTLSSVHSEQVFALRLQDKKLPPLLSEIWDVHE
T3 sequence (P19793 227-458 partner limits assumed): T1 sequence (P19793 227-458 partner limits assumed)
Experimental: as §1, §2, §3

[4] = target: T4, ligand binding domain of LXRα-RXR heterodimers (Homo sapiens, UniProt Q13133); test: LXR ligand binding domain mediated activity, UASGx4 TK-Luc reporter in CV-1 cells; format: cell-based; conditions: 20 μM
T4 construct: expressed in transfected cells; host or cells: CV-1 cells
T4 sequence (Q13133 209-447 limits assumed): T3 sequence (Q13133 209-447 limits assumed)
T4 sequence (P19793 227-458 partner limits assumed): T1 sequence (P19793 227-458 partner limits assumed)
Experimental: as §4
as §5, with “DMEM-FBS. After exposure to the candidate antagonist compounds, cells were harvested and assayed for luciferase and β-galactosidase activity.” for “DMEM-FBS.”
The reporter gene was UASGx4 TK-Luc.

CV-1 cells = test: Cytotoxicity in transfected CV-1 cells; conditions: T0901317 100 nM; Clotrimazole, S883417, S100250 10 μM; approximately 40 hours
Experimental: as §1

[5] = target: T5, LXRα-RXR heterodimers and receptor interaction domains of coactivator SRC1 (Homo sapiens, UniProt Q13133); test: LXR-coactivator association, VP-L-hLXRα / L-hRXRα / GAL4-SRC1 in CV-1 cells; format: cell-based; conditions: 20 μM, coactivator GAL4-SRC1, CV-1 cells
T5 construct: expressed in transfected cells; host or cells: CV-1 cells
T5 sequence (Q13133 209-447 limits assumed): T3 sequence (Q13133 209-447 limits assumed)
T5 sequence (P19793 227-458 partner limits assumed): T1 sequence (P19793 227-458 partner limits assumed)
Experimental: as §4, §5
VP-L-hLXRα contains the transactivation domain of Herpes VP16, linked to the LBD of human LXRα, L-hRXRα is the LBD of human RXRα. UASGx4 TK-Luc was the reporter gene, and the assay additionally included the coactivator GAL4-SRC1. Treatment with 20 μM azole compound as indicated was able to inhibit interactions between LXRα-RXR heterodimers and the receptor interaction domains from the coactivator SRC1.

SMILES | effect on LXR activity (LXRα [1]) | plasma triglycerides compared to mice fed a control diet [2] | TG content compared to differentiation cocktail only (NIH3T3-L1 adipocytes) | increase of SREBP-1c expression (SREBP-1c expression) | repression of LXRβ activity (LXRβ) | less effective than Clotrimazole in repressing LXRβ (LXRβ) | antagonism of constitutive activation mediated by LXR (hLXRα activity, LXREx3 TK-Luc) (human LXRα) | repression of LXRα activity (LXRα [3]) | less effective than Clotrimazole in repressing LXRα (LXRα [3]) | inhibition of constitutive activation by the LXRα-RXR ligand binding domain (UASGx4 TK-Luc) [4] | cytotoxicity (CV-1 cells) | inhibition of LXR-coactivator association [5]
CC/C=C\C/C=C\C/C=C\CCCCCCCC(=O)O [αlinoleic acid] | LXR antagonist | – | – | – | – | – | – | – | – | – | – | –
O=S(=O)(c1ccccc1)N(CC(F)(F)F)c1ccc(C(O)(C(F)(F)F)C(F)(F)F)cc1 [T0901317] | – | elevated plasma triglycerides | small overall increase in TG content | up to 4 fold | – | – | – | – | – | – | – | –
c1ccc(-c2cncn2C(c2ccccc2)(c2ccccc2)c2ccccc2)cc1 [S100250] | – | – | – | – | repressed | approximately 50% | antagonize the constitutive activation mediated by LXR | repressed | approximately 50% | inhibit constitutive activation | No cytotoxicity | inhibition of LXR-coactivator association
Cl.FC(F)(F)c1cccc(C(c2ccccc2)(c2ccccc2)n2ccnc2)c1 [S883417] | – | – | – | – | repressed | approximately 50% | antagonize the constitutive activation mediated by LXR | repressed | approximately 50% | inhibit constitutive activation | No cytotoxicity | inhibition of LXR-coactivator association
